From patent US11691972B2, “Compounds for targeted degradation of BRD9” (C4 Therapeutics, Inc., priority 2020, dated 2023)
Like-named read-outs stand apart in the source and are kept apart here.

What was measured:
[1] = system: Yamato-SS xenograft model; test: Tumor volume in the Yamato-SS xenograft (CDX) model; type: in vivo, mouse
[2] = Plasma stability, rat; type: in vitro ADME
[3] = Plasma stability, human; type: in vitro ADME
[4] = Hepatocyte stability, mouse; type: in vitro ADME; settings: mouse hepatocytes; read-out: Hepatocyte stability, Clint scaled ws
[5] = IV PK, mouse; type: in vivo; settings: for IV PK AUC(0-last) / IV PK Cmax: dose-normalised; for clearance / Vd / half-life: in vivo; for clearance: read-out: IV PK CL; for Vd: read-out: IV PK Vdss; for half-life: read-out: IV PK t1/2 (converted)
[6] = PO PK, mouse; type: in vivo; settings: for PO PK AUC(0-last) / PO PK Cmax: dose-normalised; for bioavailability / half-life: in vivo; for bioavailability: read-out: PO PK F%; for half-life: read-out: PO PK t1/2 (converted)
[7] = target: T1, BRD9 (Homo sapiens, UniProt Q9H8M2); test: HiBiT BRD9 degradation assay in 293T.166 (BRD9-HiBiT) cells; type: cell-based; design: endogenously expressing BRD9 with HiBiT fusion tag via CRISPR; host or cells: 293T.166 (BRD9-HiBiT), also expressing LgBiT ectopically
T1 sequence (Q9H8M2 1-597): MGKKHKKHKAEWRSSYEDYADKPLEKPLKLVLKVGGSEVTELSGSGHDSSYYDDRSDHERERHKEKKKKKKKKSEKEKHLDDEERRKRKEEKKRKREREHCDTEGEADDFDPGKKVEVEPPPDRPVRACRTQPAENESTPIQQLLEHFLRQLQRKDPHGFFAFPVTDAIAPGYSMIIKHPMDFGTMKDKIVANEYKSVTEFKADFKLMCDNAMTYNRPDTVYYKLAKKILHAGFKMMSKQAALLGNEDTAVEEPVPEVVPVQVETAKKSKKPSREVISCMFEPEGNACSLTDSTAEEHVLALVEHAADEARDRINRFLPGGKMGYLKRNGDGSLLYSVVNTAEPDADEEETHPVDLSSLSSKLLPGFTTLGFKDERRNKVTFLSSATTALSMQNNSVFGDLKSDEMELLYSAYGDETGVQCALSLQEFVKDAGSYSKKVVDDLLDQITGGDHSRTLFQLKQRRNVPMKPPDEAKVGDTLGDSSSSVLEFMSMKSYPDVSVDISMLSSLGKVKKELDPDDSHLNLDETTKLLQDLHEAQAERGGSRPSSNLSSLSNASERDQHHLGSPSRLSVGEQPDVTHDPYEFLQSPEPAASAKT
How it was run: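 293T.166 cells carrying endogenous CRISPR BRD9-HiBiT and expressing LgBiT treated 2 h at 37° C. with compounds, 11-point half-log titration from 10 μM in duplicate. Remaining BRD9 measured as lytic HiBiT luminescence; untreated cells as negative control, no-reagent wells as positive control.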

[8] = target: T1, BRD9; test: Western blot, in-vivo BRD9 degradation in Yamato-SS tumors; design: inoculated subcutaneously into BALB/c nude mice at the right flank for tumor development; from tissue; host or cells: Yamato-SS xenograft tumours in BALB/c nude mice; species or system BALB/c nude mice
Protocol: (§1) Yamato-SS cells were maintained in vitro until exponential growth phase and inoculated subcutaneously into BALB/c nude mice at the right flank for tumor development. Mice were treated with single dose of Compound 172 at 10 or 75 mg/kg PO. Tumor were collected at indicated time points and snap frozen until lysis. Tumors were ground and lysed in RIPA Buffer containing 2× protease/phosphatase inhibitor using a freeze grinder at 50 Hz for 5 minutes. Protein concentrations were determined by Pierce™ BCA Protein Assay Kit. Samples were diluted to appropriate concentrations and run in a western blot.
as §1, with “Yamato-SS” for “Yamato-SS cells”, “flank.” for “flank for tumor development.”, “176” for “172”, “3, 12” for “10”, “50” for “75”
FIG. 20 is a histogram reflecting quantitated bands from FIG. 19. The x axis is time measured in hours and the y axis is BRD9 remaining normalized to vehicle and vinculin measured in percentage.

[9] = target: BRD9 (Rattus norvegicus, UniProt D4ACF5); test: BRD9 degradation in rat cells (24 h); type: cell-based
Sequence of BRD9 (Rattus norvegicus, UniProt D4ACF5) (D4ACF5 1-761): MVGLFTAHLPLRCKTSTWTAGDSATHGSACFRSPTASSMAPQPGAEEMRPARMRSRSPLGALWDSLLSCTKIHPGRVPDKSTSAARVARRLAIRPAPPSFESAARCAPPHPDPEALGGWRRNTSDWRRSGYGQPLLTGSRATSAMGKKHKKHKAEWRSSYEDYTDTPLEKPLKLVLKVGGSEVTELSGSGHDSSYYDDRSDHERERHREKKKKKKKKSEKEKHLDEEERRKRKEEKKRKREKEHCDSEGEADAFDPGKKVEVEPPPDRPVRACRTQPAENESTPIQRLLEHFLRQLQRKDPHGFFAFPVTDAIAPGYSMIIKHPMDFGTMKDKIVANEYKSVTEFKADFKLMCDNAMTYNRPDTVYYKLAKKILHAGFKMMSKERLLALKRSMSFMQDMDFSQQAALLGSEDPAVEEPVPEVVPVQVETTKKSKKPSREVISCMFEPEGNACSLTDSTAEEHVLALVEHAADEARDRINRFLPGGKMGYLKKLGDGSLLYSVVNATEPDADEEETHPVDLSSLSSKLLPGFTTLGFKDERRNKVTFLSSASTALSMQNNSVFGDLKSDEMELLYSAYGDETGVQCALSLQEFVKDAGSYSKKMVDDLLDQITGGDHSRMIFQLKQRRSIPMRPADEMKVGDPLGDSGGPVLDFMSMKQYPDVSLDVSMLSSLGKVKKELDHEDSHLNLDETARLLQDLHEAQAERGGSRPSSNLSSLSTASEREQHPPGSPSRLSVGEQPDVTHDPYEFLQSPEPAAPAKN

[10] = target: CYP 2B6 (Homo sapiens, UniProt P20813); test: CYP inhibition 2B6; type: in vitro ADME
Sequence of CYP 2B6 (P20813 whole entry): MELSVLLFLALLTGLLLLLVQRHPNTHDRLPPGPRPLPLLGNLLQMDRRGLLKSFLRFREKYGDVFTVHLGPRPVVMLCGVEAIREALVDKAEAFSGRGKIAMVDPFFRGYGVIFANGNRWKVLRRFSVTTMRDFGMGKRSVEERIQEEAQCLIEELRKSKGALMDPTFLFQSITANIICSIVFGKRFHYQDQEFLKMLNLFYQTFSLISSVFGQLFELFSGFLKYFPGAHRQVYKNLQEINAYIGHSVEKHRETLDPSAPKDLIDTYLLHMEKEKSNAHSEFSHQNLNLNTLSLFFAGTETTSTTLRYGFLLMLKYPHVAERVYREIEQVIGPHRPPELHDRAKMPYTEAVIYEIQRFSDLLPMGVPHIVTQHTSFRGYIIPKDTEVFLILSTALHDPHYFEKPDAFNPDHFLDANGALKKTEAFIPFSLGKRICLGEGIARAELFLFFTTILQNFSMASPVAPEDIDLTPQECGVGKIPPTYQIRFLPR

[11] = IV PK, dog; type: in vivo
[12] = Table 1, 293T.166 cells, 2.0 hours, class symbols, read-out: HiBiT-Degradation 293T.166 BRD9 2.0 hours (DC50)

Row | SMILES | Stability (plasma) % remaining @3 hrs [2] | Stability (plasma) % remaining @3 hrs [3] | CLint scaled [4] | IV PK AUC(0-last) [5] | IV PK Cmax [5] | clearance [5] | Vd [5] | half-life [5] | PO PK AUC(0-last) [6] | PO PK Cmax [6] | bioavailability [6] | half-life [6] | DC50 [7, 12] | further results
1 | COc1cc(-c2cn(C)c(=O)c(C)c2C)cc(OC)c1CN1CCC(N2CCN(c3ccc(NC4CCC(=O)NC4=O)cc3F)CC2)C(F)(F)C1 (single isomer, unassigned) [Compound 176, 3-[4-[4-[1-[[2,6-dimethoxy-4-(1,4,5-trimethyl-6-oxo-3-pyridyl)phenyl]methyl]-3,3-difluoro-4-piperidyl]piperazin-1-yl]-3-fluoro-anilino]piperidine-2,6-dione] | 88% | 67% | 30 mL/min/kg | 2724 (h*ng/mL)/(mg/kg) | 720 [ng/mL]/(mg/kg) | 6.2 mL/min/kg | 2 L/kg | 3.7 h | 1999 (h*ng/mL)/(mg/kg) | 346 (ng/mL)/(mg/kg) | 74% | 3.5 h | < 100 nM | mean tumor volume+SEM ([1]; synovial sarcoma CDX model (Yamato SS), various concentrations, FIG. 21): efficacy; in-vivo BRD9 degradation, western blot ([8]; single dose 3, 12 or 50 mg/kg PO, 1, 4, 12, 24, 48 hr, FIG. 19): time dependent in-vivo BRD9 degradation
2 | COc1cc(-c2cn(C)c(=O)c(C)c2C)cc(OC)c1CN1CCC(N2CCN(c3ccc(NC4CCC(=O)NC4=O)cc3F)CC2)C(F)(F)C1 (stereo not shown) [Compound 172, 3-[4-[4-[1-[[2,6-dimethoxy-4-(1,4,5-trimethyl-6-oxo-3-pyridyl)phenyl]methyl]-3,3-difluoro-4-piperidyl]piperazin-1-yl]-3-fluoro-anilino]piperidine-2,6-dione] | 97.0% | 83.4% | 38 mL/min/kg | 4942 (h*ng/mL)/(mg/kg) | 1228 [ng/mL]/(mg/kg) | 3.4 mL/min/kg | 1.1 L/kg | 3.6 h | 5947 (h*ng/mL)/(mg/kg) | 844 (ng/mL)/(mg/kg) | 122% | 3.3 h | < 100 nM | response of tumor volume to various concentrations ([1]; Yamato-SS xenograft model, FIG. 7): dose dependent efficacy; BRD9 degradation rat cells (24 h), percent [9]: 53%; DC50 ([9]; read-out: BRD9 degradation rat cells (24 h), concentration): 1000 nM; IC50 [10]: 100 nM; IV PK AUC(0-last) ([11]; dose-normalised): 2343 (h*ng/mL)/(mg/kg); IV PK Cmax ([11]; dose-normalised): 767 [ng/mL]/(mg/kg); clearance ([11]; in vivo, read-out: IV PK CL): 6.2 mL/min/kg; Vd ([11]; in vivo, read-out: IV PK Vdss): 4.36 L/kg; half-life ([11]; in vivo, read-out: IV PK t1/2 (converted)): 8.8 h; BRD9 degradation (2 h), Kendo 17 h, percent ([7]; 2 h): 5%; DC50 ([7]; 2 h, read-out: BRD9 degradation (2 h), Kendo 17 h, concentration): 3.4 nM; in-vivo BRD9 degradation, western blot ([8]; single dose 10 or 75 mg/kg PO, FIG. 12, not BRD7): dose dependent in-vivo BRD9 degradation
